{"source": "patent US20120065140A1", "about": "“Biomarkers for the Diagnosis of Autoimmune Disease” (priority 2010, published 2012)", "origin": "cited, not measured here"}
{"smiles": "CN(Cc1cnc2nc(N)nc(N)c2n1)c1ccc(C(=O)N[C@@H](CCC(=O)O)C(=O)O)cc1", "note": "[MTX, Methotrexate]", "values": [{"measurement": "onset of action", "setting": "rheumatoid arthritis", "result": "4-6 weeks"}, {"measurement": "patients having some response", "setting": "rheumatoid arthritis patients", "result": 70, "unit": "%"}]}
